Tests used:
[1] = target: T1, PAF (platelet activating factor) receptors (Oryctolagus cuniculus, UniProt G1TEI7); assay: Binding to PAF receptors (3H-PAF displacement in rabbit platelets); conditions: 50% inhibiting concentration of specific receptor binding, 3H-PAF 0.5 nM, 30 minutes at 25°C
T1 construct: Blood was drawn via indracardiac puncture from male rabbits; from tissue; host or cells: Platelets from the blood of male rabbits (HY/CR strain, Charles River, Italy)
Protocol: The binding of the compounds under examination to rabbit platelet receptors was studied following the procedure disclosed by D. Nunez et al, Eur J. Pharmacol. 123, 197 (1986).
Blood was drawn via indracardiac puncture from male rabbits (HY/CR strain-Charles River, Italy) weighing 2.5-3.0 Kg.
Blood was diluted (1:9) in a ACD (0.8% citric acid, 2.2% trisodium citrate, 2.45% glucose, weight percentages) solution and centrifuged at 100 x g for 15 minutes.
The precipitate was suspended in the incubation buffer at […] platelet/ml concentration, immediately before binding.
The platelet number and possible erythrocyte contamination was controlled with a platelet counter DELCON CA480.
Platelets were incubated in polyethylene tubes with ³H-PAF (0.5 nM) for 30 minutes at 25°C. The test compounds were added to a volume of 200 µl. The final volume was equal to 500 µl. Incubation was stopped by rapid filtration under vacuum through GF/C filters (WHATMAN) washed with (3x3 ml) cold incubation buffer using a Brondel Cell Harvester filtration system. The filters were counted in 8 mL OptiFluor (Packard) using a TRI-CARB 1900 CA-Packard liquid scintillation spectrometer (about 50% counting efficiency).
The percentage of inhibition of the specific binding receptor-radioligand was calculated for each concentration (mean of incubations in triplicate).
The competition curve, the slope of the curve, and the IC₅₀ value (concentration which inhibits 50% of the specific radioligand-receptor binding) were calculated with the "All fit" program (A. De Lean et al., Am. J. Physiol. 235, E97, 1978) runned in a 55-SX IBM computer.

mice = assay: Observation of behaviour and death rate in mice (Irwin method); format: in vivo; conditions: for SYMPTOMS: male mice, 4 animals/dose, n.e. = no effect; for DEATH RATE: mouse, in vivo
Protocol: The observation of normal behaviour in mice was conducted following the method by S. Irwin, Psychopharmacologia 13, 222 ( 1968). This method allows alterations of some behavioural, neurophysiological and neurovegetative parameters directly detectable by the experimenter to be visualized.
The test was conducted in male mice [Crl;(CD-I)(ICR)BR, Charles River - Italy] weighing 22-25 g, following oral administration of the compounds suspended in carboxymethylcellulosa (0.5% by weight in H₂O) to groups of 4 animals/dose.
The animals were kept under continuous observation for five hours following treatment and twice a day for the subsequent five days.
Death rate was also observed during the whole test period. The initial administered dose was 1,000 mg/kg per os; lower doses were administered following death of some animals or after marked effects at the initial dose were dected.

[2] = system: PAF-induced platelet aggregation; assay: PAF-induced platelet aggregation in platelet rich plasma; format: cell-based, rabbits; conditions: Oryctolagus cuniculus, 2 min, compound 10^-5M, 2 minutes of incubation, rabbit PRP
Protocol: Blood was collected from male rabbits (HY/Charles River, Italy) by heart puncture using a plastic syringe and transferred immediately into plastic tubes containing 3.8% (by weight) solution of sodium citrate (0.1 ml/ml blood).
PRP (Platelet Rich Plasma) was obtained by plasma centrifugation at 145 x g for 5 minutes at 22°C. Platelet number was determined with a CA 580A (Delcon) "platelet counter". The platelet number was adjusted to the fixed value of […] by adding PPP (Platelet Poor Plasma). PPP was obtained by centrifuging blood at 1600 x g for 10 minutes at 22°C.
(§1) Platelet aggregation was determined photometrically (G.V.R. Born, Nature 194, 927; 1962) with an ELVI 840 aggregometer in plastic tubes under continuous stirring at 1000 rpm.
(§2) Maximal light transmission (100% ) was recorded by reading PPP, while 0% transmission was recorded by reading PRP. The PRP aggregation degree induced by the aggregation factor (PAF) was calculated as percentage of maximal light transmittance obtained with PPP using 250 µL samples of PRP.
(§3) The compounds were dissolved in bidistilled water at the concentration of 10⁻⁵ M and tested after 2 minutes of incubation.
(§4) Aggregation inhibition was calculated as percentage of the value obtained in the presence of the aggregating agent only.

[3] = system: ADP-induced platelet aggregation; assay: ADP-induced platelet aggregation in platelet rich plasma; format: cell-based, rats; conditions: 2 min, compound 10^-5M, 2 minutes of incubation, rat PRP
Protocol: as §1, §2, §3, §4
Blood was drawn from the abdominal aorta of male rats (Crl:(WI)BR, Charles River, Italy) under barbiturate anaesthesia and quickly transferred into plastic tubes containing 0.1 mL/mL blood of 3.8% (by weight) solution of sodium citrate. PRP was obtained by plasma centrifugation at 115 x g for 5 minutes at 22°C and PPP by centrifugation at 1600 x g for 10 minutes. The final PRP platelet number was adjusted to the fixed value of […] of PRP by adding PPP.
Platelet count was made with a CA580 A(Delcan) platelet counter. The same procedure outlined in the paragraph "PAF aggregation" was followed for the ADP-induced aggregation.

T1 sequence (G1TEI7 1-342): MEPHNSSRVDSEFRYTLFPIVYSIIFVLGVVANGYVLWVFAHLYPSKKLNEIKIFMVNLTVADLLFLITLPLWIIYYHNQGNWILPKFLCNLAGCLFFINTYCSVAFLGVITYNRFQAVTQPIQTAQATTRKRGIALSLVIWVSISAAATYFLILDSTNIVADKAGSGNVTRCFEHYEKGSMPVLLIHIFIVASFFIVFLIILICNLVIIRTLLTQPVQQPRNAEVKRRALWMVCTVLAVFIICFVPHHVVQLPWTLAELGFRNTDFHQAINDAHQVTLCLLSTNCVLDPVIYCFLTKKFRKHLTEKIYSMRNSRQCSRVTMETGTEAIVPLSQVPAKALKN

SMILES	IC50 [1] [µM]	SYMPTOMS (mice; 600 mg/kg per os)	SYMPTOMS (mice; 1000 mg/kg per os)	DEATH RATE (mice; 600 mg/kg)	DEATH RATE (mice; 1000 mg/kg)	inhibition at 10 µM [2] [%]	inhibition at 10 µM [3] [%]
C[N+](C)(C)C[C@H](O)CC(=O)OC/C=C1\OC(=O)c2ccccc21 [ST 736, (Z)-(3-phtalidylidene)ethyl ester of L-carnitine bromide]	9.3	n.e.	convulsion, salivation	0/4	3/4		
CC(=O)O[C@H](CC(=O)OC/C=C1\OC(=O)c2ccccc21)C[N+](C)(C)C [ST 739]	5.3	n.e.	jerks	0/4	2/4		
CCC(=O)O[C@H](CC(=O)OC/C=C1\OC(=O)c2ccccc21)C[N+](C)(C)C [ST 768]	6.7	n.e.	convulsion, salivation diarrhea, lacrimation	0/4	1/4		
CC(C)C(=O)O[C@H](CC(=O)OC/C=C1\OC(=O)c2ccccc21)C[N+](C)(C)C [ST 775]	2		n.e.		0/4		
CC(C)CC(=O)O[C@H](CC(=O)OC/C=C1\OC(=O)c2ccccc21)C[N+](C)(C)C [ST 776]	3.6	n.e.	convulsion, salivation	0/4	2/4	100	5
C[N+](C)(C)C[C@H](O)CC(=O)OC/C=C1\OC(=O)c2cc(Cl)ccc21 [ST 801]	0.02		salivation		0/4	97	7
CC(C)CC(=O)O[C@H](CC(=O)OC/C=C1\OC(=O)c2cc(Cl)ccc21)C[N+](C)(C)C [ST 803]	0.0066		diarrhea		0/4	72	8
CC(=O)O[C@H](CC(=O)OC/C=C1\OC(=O)c2cc(Cl)ccc21)C[N+](C)(C)C [ST 804]	0.019	salivation	salivation	0/4	1/4	96	13
CCC(=O)O[C@H](CC(=O)OC/C=C1\OC(=O)c2cc(Cl)ccc21)C[N+](C)(C)C [ST 805]	0.022	salivation	salivation	0/4	1/4	40	10
CC(C)C(=O)O[C@H](CC(=O)OC/C=C1\OC(=O)c2cc(Cl)ccc21)C[N+](C)(C)C [ST 806]	0.018	salivation	salivation	0/4	1/4	95	18

Reference: patent publication EP0488965A1, “Phthalidilidene derivatives of carnitine and alkanoylcarnitines and pharmaceutical compositions containing them” (Sigma-Tau Industrie Farmaceutiche Riunite S.p.A., priority 1990, dated 1992)
